# Results taken from US20130287805A1, “C18ORF54 PEPTIDES AND VACCINES INCLUDING THE SAME” (priority 2010, published 2013).
# Entries after “also recorded” stand apart in the source; their conditions may differ.
# Assays:
# peptide-pulsed T2 cells [1] = experiment: IFN-gamma ELISPOT assay of CTLs induced in vitro with peptide-pulsed DCs; type: cell-based, human; conditions: CTLs from HLA-A*0201 positive donor, day 21, peptide-pulsed T2 versus no peptide control
# Source text: Monocyte-derived dendritic cells (DCs) were used as antigen-presenting cells to induce cytotoxic T lymphocyte (CTL) responses against peptides presented on human leukocyte antigen (HLA). DCs were generated in vitro as described elsewhere (Nakahara S et al., Cancer Res 2003 Jul. 15, 63(14): 4112-8). Specifically, peripheral blood mononuclear cells isolated from a normal volunteer (HLA-A*0201 positive) by Ficoll-Plaque (Pharmacia) solution were separated by adherence to a plastic tissue culture dish (Becton Dickinson) so as to enrich them as the monocyte fraction. The monocyte-enriched population was cultured in the presence of 1000 U/ml of granulocyte-macrophage colony-stimulating factor (R&D System) and 1000 U/ml of interleukin (IL)-4 (R&D System) in AIM-V Medium (Invitrogen) containing 2% heat-inactivated autologous serum (AS). After 7 days of culture, the cytokine-induced DCs were pulsed with 20 micro-g/ml of each of the synthesized peptides in the presence of 3 micro-g/ml of beta 2-microglobulin for 3 hr at 37 degrees C. in AIM-V Medium. The generated cells appeared to express DC-associated molecules, such as CD80, CD83, CD86 and HLA class II, on their cell surfaces (data not shown). These peptide-pulsed DCs were then inactivated by X-irradiated (20 Gy) and mixed at a 1:20 ratio with autologous CD8+ T cells, obtained by positive selection with CD8 Positive Isolation Kit (Dynal). These cultures were set up in 48-well plates (Corning); each well contained 1.5×10^4 peptide-pulsed DCs, 3×10^5 CD8+ T cells and 10 ng/ml of IL-7 (R&D System) in 0.5 ml of AIM-V/2% AS medium. Three days later, these cultures were supplemented with IL-2 (CHIRON) to a final concentration of 20 IU/ml. On day 7 and 14, the T cells were further stimulated with the autologous peptide-pulsed DCs. The DCs were prepared each time by the same way described above. CTL was tested against peptide-pulsed T2 cells after the 3rd round of peptide stimulation on day 21 (Tanaka H et al., Br J Cancer Jan. 5, 2001, 84(1): 94-9; Umano Y et al., Br J Cancer Apr. 20, 2001, 84(8): 1052-7; Uchida N et al., Clin Cancer Res Dec. 15, 2004, 10(24): 8577-86; Suda T et al., Cancer Sci May 2006, 97(5): 411-9; Watanabe T et al., Cancer Sci August 2005, 96(8): 498-506).
# (§1) Specifically, peptide-pulsed T2 (1×10^4/well) was prepared as stimulator cells. Cultured cells in 48 wells were used as responder cells. IFN-gamma ELISPOT assay and IFN-gamma ELISA assay were performed under manufacture procedure.
# peptide-pulsed T2 cells [2] = experiment: IFN-gamma ELISA assay of expanded CTL lines; type: cell-based, human; conditions: target cells pulsed with peptide versus without peptide pulse
# Method: CTLs were expanded in culture using the method similar to the one described by Riddell et al. (Walter E A et al., N Engl J Med Oct. 19, 1995, 333(16): 1038-44; Riddell S R et al., Nat Med February 1996, 2(2): 216-23). A total of 5×10^4 CTLs were suspended in 25 ml of AIM-V/5% AS medium with 2 kinds of human B-lymphoblastoid cell lines, inactivated by Mitomycin C, in the presence of 40 ng/ml of anti-CD3 monoclonal antibody (Pharmingen). One day after initiating the cultures, 120 IU/ml of IL-2 were added to the cultures. The cultures were fed with fresh AIM-V/5% AS medium containing 30 IU/ml of IL-2 on days 5, 8 and 11 (Tanaka H et al., Br J Cancer Jan. 5, 2001, 84(1): 94-9; Umano Y et al., Br J Cancer Apr. 20, 2001, 84(8): 1052-7; Uchida N et al., Clin Cancer Res Dec. 15, 2004, 10(24): 8577-86; Suda T et al., Cancer Sci May 2006, 97(5): 411-9; Watanabe T et al., Cancer Sci August 2005, 96(8): 498-506).
# as §1
# peptide-pulsed T2 cells [3] = experiment: IFN-gamma ELISA assay of CTL clones established by limiting dilution; type: cell-based, human; conditions: target cells pulsed with peptide versus without peptide pulse
# Method: The dilutions were made to have 0.3, 1, and 3 CTLs/well in 96 round-bottomed micro titer plate (Nalge Nunc International). CTLs were cultured with 1×10^4 cells/well of 2 kinds of human B-lymphoblastoid cell lines, 30 ng/ml of anti-CD3 antibody, and 125 U/ml of IL-2 in a total of […] of AIM-V Medium containing 5% AS. 50 micro-l/well of IL-2 were added to the medium 10 days later so to reach a final concentration of 125 U/ml IL-2. CTL activity was tested on the 14th day, and CTL clones were expanded using the same method as described above (Uchida N et al., Clin Cancer Res Dec. 15, 2004, 10(24): 8577-86; Suda T et al., Cancer Sci May 2006, 97(5): 411-9; Watanabe T et al., Cancer Sci August 2005, 96(8): 498-506).
# as §1
# [4] = test system: COS7 cells transfected with C18orf54 and HLA-A*0201; experiment: Specific CTL activity against target cells expressing C18orf54 and HLA-A*0201; type: cell-based, African green monkey; conditions: CTL clone
# Source text: The cDNA encoding an open reading frame of target genes or HLA-A*0201 was amplified by PCR. The PCR-amplified product was cloned into the expression vector. The plasmids were transfected into COS7, which is the target genes and HLA-A*0201-null cell line, using lipofectamine 2000 (Invitrogen) according to the manufacturer's recommended procedures. After 2 days from transfection, the transfected cells were harvested with versene (Invitrogen) and used as the target cells (5×10^4 cells/well) for CTL activity assay.
# The established CTL lines and clones raised against each peptide were examined for the ability to recognize target cells that express C18orf54 and HLA-A*0201 molecule. […] COS7 cells transfected with either full length of C18orf54 or HLA-A*0201 were prepared as the controls.
sequence,measurement,setting,value
KLYRSASQA [SEQ ID NO: 14],Peptide specific CTL activity: IFN-gamma production (ELISPOT),peptide-pulsed T2 cells [1],potent IFN-gamma production
QLKESMIPI [SEQ ID NO: 10],Peptide specific CTL activity: IFN-gamma production (ELISPOT),peptide-pulsed T2 cells [1],potent IFN-gamma production
QMLFNLQAV [SEQ ID NO: 2],Peptide specific CTL activity: IFN-gamma production (ELISPOT),peptide-pulsed T2 cells [1],potent IFN-gamma production
same,IFN-gamma production of CTL lines (ELISA),peptide-pulsed T2 cells [2],potent IFN-gamma production
SIPDFKYPV [SEQ ID NO: 4],Peptide specific CTL activity: IFN-gamma production (ELISPOT),peptide-pulsed T2 cells [1],potent IFN-gamma production
same,IFN-gamma production of CTL lines (ELISA),peptide-pulsed T2 cells [2],potent IFN-gamma production
same,IFN-gamma production of CTL clones (ELISA),peptide-pulsed T2 cells [3]; listed as C18orf54-A02-9-255,potent IFN-gamma production
SLQKALHHL [SEQ ID NO: 5],Peptide specific CTL activity: IFN-gamma production (ELISPOT),peptide-pulsed T2 cells [1],potent IFN-gamma production
same,Specific CTL activity against COS7 cells expressing both C18orf54 and HLA-A*0201,"[4]; COS7 transfected with both full length C18orf54 and HLA-A*0201, listed as C18orf54-A02-9-507",potent CTL activity; also recorded: specific CTL activity
same,Specific CTL activity against control COS7 cells,[4]; COS7 transfected with either C18orf54 or HLA-A*0201 alone,no significant specific CTL activity
same,IFN-gamma production of CTL lines (ELISA),peptide-pulsed T2 cells [2],potent IFN-gamma production
same,IFN-gamma production of CTL clones (ELISA),peptide-pulsed T2 cells [3]; listed as C18orf54-A02-9-507,potent IFN-gamma production
SLSDDKELV [SEQ ID NO: 3],Peptide specific CTL activity: IFN-gamma production (ELISPOT),peptide-pulsed T2 cells [1],potent IFN-gamma production
SMIPITRSL [SEQ ID NO: 1],Peptide specific CTL activity: IFN-gamma production (ELISPOT),peptide-pulsed T2 cells [1]; listed as C18orf54-A02-9-500,not observed
TSIPDFKYPV [SEQ ID NO: 32],Peptide specific CTL activity: IFN-gamma production (ELISPOT),peptide-pulsed T2 cells [1],potent IFN-gamma production
VTFKSPVPV [SEQ ID NO: 9],Peptide specific CTL activity: IFN-gamma production (ELISPOT),peptide-pulsed T2 cells [1],potent IFN-gamma production
WLTSQKSDL [SEQ ID NO: 20],Peptide specific CTL activity: IFN-gamma production (ELISPOT),peptide-pulsed T2 cells [1],potent IFN-gamma production
